Assay results from patent US4526894A, “Pharmaceutically active 4-hydroxy-3-benzoyl-2-quinolone derivatives” (Nippon Shinyaku Co. Ltd., priority 1982, dated 1985).

Assays:
[1] = test system: passive cutaneous anaphylaxis (DNP-As antigen) in Wister strain rats; experiment: passive cutaneous anaphylaxis (PCA) assay in rats; format: in vivo; settings: 10 mg/kg oral, one hour before antigen; for inhibition in vivo at 10 mg/kg: Rattus norvegicus, po, 1 h, read-out: PCA Inhibition Ratio %
Description: (i) Antiserum abundant in homocytotropic antibody is prepared by the same method as Tada and Okumura did (cf. Journal of Immunology, vol. 106, page 1002, 1976). Thus, 1 mg (calculated as an amount of protein) of DNP-As (2,4-dinitrophenyl-coupled ascaris extract) prepared by methods of Strejan and Campbell (Journal of Immunology, vol. 98, p. 893, 1971) and of Eisen (Journal of Amer. Chem. Soc., vol. 85, p 4593, 1953) and 1×10^10pertussis vaccine are administered to each paw of Wister strain rats (180 to 200 grams body weights) by dividing the dose by four. Five days later, 0.5 mg of DNP-As is administered into muscle of back. Eight days later from the initial immunization, blood is taken from descending aorta under anesthetizing with ether, the resulting serum is stored at -80° and is melted before use.
(ii) Effect of tested compounds is investigated as follows:
Anti-serum obtained by the method (i) is diluted with physiological saline solution double by double successively and 0.05 ml of each diluted solution is administered into back of Wister strain rats (140 to 160 grams body weight) subcutaneously. After 72 hours, a solution of 2 mg (calculated as protein) of DNP-As and 2.5 mg of Evans Blue dissolved in 1 ml of physiological saline solution is administered intraveously at a dose of 5 ml/kg. After 30 minutes from antigen solution administration, the animals are killed and diameters of blue spots appeared at the place where antiserum is administered are measured. The PCA test is conducted by the same method as already described using a diluted solutions of antiserum which always show 10 mm or more of spot diameters and the effect of the test compounds is judged. Thus antiserum diluted solutions are administered to two places in back. Test compounds are administered orally at the dose of 10 mg/kg one hour before administration of antigen solution. From the skin of reacted parts of killed animals, leaked or emitted dyestuff is extracted and the amount of the dyestuff is measured. The inhibition ratio is calculated by the following expression:
Inhibition Ratio=(1-A'/A)×100
in which A' is an amount of dyestuff in the group treated with the test compounds and A is that in the control group.

[2] = test system: SRS-A (slow reacting substance of anaphylaxis); experiment: Anti-SRS-A action using isolated ileus of guinea pigs
Description: Anti-SRS-As action (An anti-action against slow reacting substance of anaphylaxis).
Hartley strain male guinea pigs (300 to 350 grams body weight) are killed and 1.0 to 1.5 cm of ileus is immeidiately excised from ileocecal parts and is suspended in 10 ml of Tyrode solution (95% O2 -5% CO2 saturation) containing 10^-7 g/ml of atropine and 10^-6 g/ml of pyrilamine. SRS-A (20 units) (the amount of SRS-A showing the same shrinkage as 5 ng of histamine is defined as 1 unit) prepared by using sensitized guinea pig lung is given to cause shrinkage there. Then antagonistic action of test compounds treated five minutes ago against the shrinkage is measured and recorded via isotonic transducer.
Inhibition Ratio of Test Compd (%)=(1-A'/A)×100
in which A' is a height of shrinkage of SRS-A+test compound and A is that of SRS-A.

[3] = test system: carrageenin edema in SD-strain rats; experiment: Carrageenin edema at hind foot of rats (anti-inflammatory action); format: in vivo, rat; settings: Rattus norvegicus, po, 3 h, 200 mg/kg per os one hour before carrageenin; 3 hours after; read-out: % Inhibition of carrageenin edema
Description: The anti-inflammatory action of the compounds of the present invention were evaluated by measuring the inhibition against carrageein edema as set forth below.
Carrageenin edema at hind foot of rats:
SD-strain rats of body weights of around 150 grams were used, each group consisting of five rats. A solution (0.1 ml) of 0.5% carrageenin dissolved in physiological saline water was hypodermically injected into right hind foot pat of the rats and, one hour prior to the injection of carrageenin, 200 mg/kg of test compound was given per os. Foot volumes of the rats before the carrageenin treatment and those of three hours after the treatment were measured and the differences were compared with those of the control group to determine the effect of the compounds.

male mice = experiment: Acute oral toxicity in mice (lethal ratio); format: in vivo; settings: 400 mg/kg oral, two weeks, four mice per group
Description: Acute toxicity was determined two weeks after oral administration of 400 mg/kg to male mice. Four mice (denominator) are used in each group and the dead numbers are given as the numerator. The compounds of the present invention show little, if any, toxicity.
Lethal ratios for all other compounds are 0/4 at doses of […]. It is therefore apparent that they are all safe compounds.

allergic asthma = settings: cited from earlier work
[4] = 10^-6 M; guinea pig ileus, SRS-A 20 units; 5 min, 1 µM

SMILES | PCA Inhibition Ratio % ([1]; rat, 10 mg/kg) | SRS-A Inhibition Ratio % ([2]; 10^-6 M, guinea pig ileus, SRS-A 20 units, 5 min, 1 µM) | SRS-A Inhibition Ratio % (value in parentheses) ([2]; 10^-7 M; guinea pig ileus, SRS-A 20 units; 5 min, 0.1 µM) | inhibition in vivo at 200 mg/kg [3] | Lethal Ratio (dead/treated) (male mice) | duration of action (in words) (allergic asthma; in vivo) | effect on allergic asthma (in words) (allergic asthma; in vivo) | effect on oral administration (in words) (allergic asthma; oral administration) | inhibition in vivo at 10 mg/kg [1] | SRS-A Inhibition Ratio % [2, 4]
CCCCCCc1ccc2[nH]c(=O)c(C(=O)c3ccccc3)c(O)c2c1 [Example 23, 3-benzoyl-6-n-hexyl-4-hydroxy-2-quinolone] | 13.1% | 83.3% | 32.8% | 15.9% | 0/4 |  |  |  |  | 
O=C(O)c1cc(=O)c2c(OCC(O)COc3cccc4oc(C(=O)O)cc(=O)c34)cccc2o1 [Sodium chromoglicate] |  |  |  |  |  | rather short | effective for allergic asthma | does not show any effect on oral administration |  | 
COC(=O)c1cccc2c(O)c(C(=O)c3ccccc3)c(=O)[nH]c12 [Example 13] |  |  |  |  | 1/4 |  |  |  | 25.7% | 19.8%
O=C(c1ccccc1Cl)c1c(O)c2ccccc2[nH]c1=O [Example 35, 3-(2-chlorobenzoyl)-4-hydroxy-2-quinolone] |  |  |  |  | 0/4 |  |  |  | 45.6% | 32.6%
Cc1cccc2c(O)c(C(=O)c3ccccc3)c(=O)[nH]c12 [Example 19, 3-benzoyl-4-hydroxy-8-methyl-2-quinolone] |  |  |  | 70% | 0/4 |  |  |  | 29.6% | 19.0%
